The supplement of paper PMC10307832

Assays:
Assay in all cases: relative viability (nuclei count vs DMSO), 5 days (fraction); higher = more cells survive
[1] = compound: CC(C)N(CCCNC(=O)Nc1ccc(C(C)(C)C)cc1)C[C@H]1O[C@@H](n2ccc3c(N)ncnc32)[C@H](O)[C@@H]1O + C[C@]1(O)C[C@@H](c2nc(-c3ccc4ccc(-c5ccccc5)nc4c3)c3c(N)nccn32)C1 [Linsitinib] (partner 1 µM)
Procedure, shortened: (§1)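 Relative viability divides the nuclei count in treated wells by that in vehicle wells. Lung cancer cell lines were seeded in 1536-well plates, dosed by pin tool the next day, and fixed and stained after 5 days in one step with final 0.05% Triton X-100, 1% formaldehyde and 1 ug/ml Hoechst. Dosing was a single drug or a fixed anchor-drug dose plus five library-drug doses (not always all listed) in √10 steps, and values are medians of duplicate plates imaged at 4×.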

[2] = compound: CC(C)N(CCCNC(=O)Nc1ccc(C(C)(C)C)cc1)C[C@H]1O[C@@H](n2ccc3c(N)ncnc32)[C@H](O)[C@@H]1O + CC(C)C[C@H](NC(=O)[C@H](Cc1ccccc1)NC(=O)c1cnccn1)B(O)O [Bortezomib] (partner 0.002 µM)
Procedure, shortened: as §1

Shikonin + Tozasertib = compound: CC(C)=CC[C@@H](O)C1=CC(=O)c2c(O)ccc(O)c2C1=O [Shikonin] + Cc1cc(Nc2cc(N3CCN(C)CC3)nc(Sc3ccc(NC(=O)C4CC4)cc3)n2)n[nH]1 [Tozasertib] (partner 0.1 µM)
Procedure, shortened: as §1

[3] = compound: CC(C)N(CCCNC(=O)Nc1ccc(C(C)(C)C)cc1)C[C@H]1O[C@@H](n2ccc3c(N)ncnc32)[C@H](O)[C@@H]1O + COc1cc2c(Oc3ccc(NC(=O)C4(C(=O)Nc5ccc(F)cc5)CC4)cc3F)ccnc2cc1OCCCN1CCOCC1 [Foretinib] (partner 0.25 µM)
Procedure, shortened: as §1

Row | Cell Line | relative viability ([1]; first compound 0.08 µM) | relative viability ([1]; first compound 0.253 µM) | relative viability ([1]; first compound 0.8 µM) | relative viability ([1]; first compound 2.53 µM) | relative viability ([1]; first compound 8 µM) | relative viability ([2]; first compound 0.08 µM) | relative viability ([2]; first compound 0.253 µM) | relative viability ([2]; first compound 0.8 µM) | relative viability ([2]; first compound 2.53 µM) | relative viability ([2]; first compound 8 µM) | relative viability (Shikonin + Tozasertib; first compound 0.01 µM) | relative viability (Shikonin + Tozasertib; first compound 0.1 µM) | relative viability (Shikonin + Tozasertib; first compound 0.3162 µM) | relative viability (Shikonin + Tozasertib; first compound 1 µM) | relative viability ([3]; first compound 0.08 µM) | relative viability ([3]; first compound 0.253 µM) | relative viability ([3]; first compound 0.8 µM) | relative viability ([3]; first compound 2.53 µM) | relative viability ([3]; first compound 8 µM)
1 | NCI-H1651 | 0.99 | 0.983 | 0.965 | 1.11 | 0.987 | 0.958 | 0.957 | 0.967 | 0.943 | 0.944 | 0.8 | 0.783 | 0.744 | 0.748 | 0.876 | 0.79 | 0.86 | 0.871 | 0.808
2 | NCI-H1666 | 0.794 | 0.925 | 0.859 | 0.85 | 0.781 | 0.802 | 0.775 | 0.613 | 0.83 | 0.697 | 0.622 | 0.636 | 0.665 | 0.522 | 0.976 | 0.949 | 1.03 | 0.938 | 0.92
3 | NCI-H1734 | 0.833 | 0.862 | 0.88 | 0.901 | 0.874 | 0.701 | 0.921 | 0.355 | 0.973 | 0.847 | 0.288 | 0.284 | 0.302 | 0.161 | 0.825 | 1.01 | 0.918 | 0.796 | 0.804
4 | NCI-H1755 | 1.01 | 0.997 | 0.894 | 0.916 | 0.836 | 0.934 | 0.914 | 0.467 | 0.929 | 0.878 | 0.578 | 0.521 | 0.506 | 0.532 | 0.92 | 0.909 | 0.925 | 0.857 | 0.868
5 | NCI-H1915 | 1.13 | 1.15 | 1.08 | 1.06 | 1.03 | 0.911 | 0.972 | 0.622 | 0.894 | 0.935 | 0.444 | 0.498 | 0.454 | 0.482 | 1.02 | 1.07 | 1.06 | 1 | 1.03
6 | NCI-H1975 | 0.842 | 0.902 | 0.744 | 0.836 | 0.878 | 0.34 | 0.352 | 0.149 | 0.36 | 0.341 | 0.865 | 0.83 | 0.764 | 0.701 | 0.853 | 0.916 | 0.871 | 0.707 | 0.765
7 | NCI-H1993 | 0.806 | 0.761 | 0.738 | 0.752 | 0.654 | 0.96 | 0.912 | 0.915 | 1.13 | 1.16 | 0.627 | 0.547 | 0.571 | 0.551 | 0.755 | – | – | 0.796 | 0.784
8 | NCI-H2009 | 1.18 | 1.21 | 1.18 | 1.13 | 0.958 | 1.05 | 0.817 | 0.883 | 1.08 | 0.955 | 0.747 | 0.774 | 0.815 | 0.56 | 1.26 | 1.19 | 1.23 | 1.24 | 1.19
9 | NCI-H2023 | 0.661 | 0.734 | 0.72 | 0.709 | 0.652 | 0.89 | 0.451 | 0.872 | 1.09 | 0.821 | 0.477 | 0.453 | 0.383 | 0.412 | 0.811 | 0.958 | 1.02 | 1.03 | 0.773
10 | NCI-H2085 | 0.912 | 0.949 | 0.805 | 0.958 | 0.943 | 1.02 | 0.925 | 0.749 | 1.09 | 0.907 | 0.758 | 0.829 | 0.868 | 0.801 | 0.957 | 1.04 | 1.1 | 0.928 | 1.02
11 | NCI-H2087 | 1.06 | 1.14 | 0.998 | 1.18 | 0.965 | 0.861 | 0.841 | 0.25 | 0.99 | 0.857 | 0.307 | 0.254 | 0.198 | 0.202 | 1.1 | 1.32 | 1.22 | 1.14 | 1.22
12 | NCI-H2126 | 0.713 | 0.674 | 0.743 | 0.749 | 0.676 | 1.03 | 1.12 | 1.14 | 1.08 | 1.05 | 0.91 | 0.967 | 0.869 | 0.846 | 1.18 | 1.04 | 1.16 | 1.13 | 1.2
13 | NCI-H2228 | 0.817 | – | 0.665 | 0.625 | 0.554 | 0.788 | – | 0.377 | 0.825 | 1.19 | 0.177 | 0.273 | 0.234 | 0.212 | 0.865 | 0.895 | 0.931 | 0.976 | 0.905
14 | NCI-H2347 | 1 | 0.95 | 0.868 | 1.02 | 0.97 | 1.14 | 0.871 | 0.534 | 0.924 | 1 | 0.546 | 0.504 | 0.594 | 0.558 | 1.1 | 0.778 | 0.865 | 0.721 | 0.993
15 | NCI-H2405 | 0.901 | – | 0.919 | 0.966 | 0.945 | 0.986 | 0.989 | 0.918 | 0.994 | 0.819 | 0.768 | 0.802 | 0.779 | 0.687 | 1.02 | 1.07 | 1.04 | 1.12 | 1.03
16 | NCI-H3122 | 1.03 | 0.989 | 0.919 | 1.01 | 0.938 | 1.02 | 0.994 | 1.04 | 1.03 | 0.978 | 0.359 | 0.431 | 0.462 | 0.51 | 0.887 | 0.951 | 0.979 | 0.922 | 0.887
17 | PC-3 [JPC-3] | 0.97 | 0.94 | 0.876 | 0.919 | 0.897 | 0.79 | 0.927 | 0.317 | 0.749 | 0.815 | 0.883 | 0.984 | 1.01 | 0.94 | 1.05 | 1.15 | 0.96 | 1.05 | 0.936
